# In article PMC3387161, “Small Molecules Targeted to a Non-Catalytic “RVxF” Binding Site of Protein Phosphatase-1 Inhibit HIV-1” (PLoS ONE, 2012):
# What was measured:
# [1] = test system: interaction of Tat with PP1α; format: cell-based, human
# 293T cells = assay: Cellular proteome analysis by mass spectrometry in 293T cells; format: cell-based, human; conditions: 10 µM, 18 h, 28 proteins with highest SEQUEST scores
# Protocol: To determine if 1H4 has a negative effect on protein expression profiles, we analyzed the global cellular proteome by mass spectrometry. Protein expression was analyzed in 293T cells untreated or treated with 1H4 as described in Materials and Methods. We detected expression of 1722 proteins in the untreated sample and 1739 proteins in the 1H4-treated sample (not shown).
# Samples were separated by reversed-phase liquid chromatography (HPLC), using micro-capillary column C18, coupled in line with nanospray and tandem mass spectrometer Thermo LTQ Orbitrap XL. The LC gradient was run for 60 min from 2% to 30% of acetonitrile containing 0.1% formic acid at flow rate 400 nL/min. In single measurement block we performed 1 FT MS scan and 3 data dependent FT MS/MS scans on major multi-charged MS peaks with resolution 30000. The normalized collision-induced dissociation (CID) energy was 35%. The MS/MS spectra were compared against those in the NCBI human protein database. Proteins that were not present in the database, i.e. recombinant Flag-Tat, were manually added to the database. Only peptides having X-correlation (X corr) cutoffs of 1.9 for [M +2H]^2+, 2.3 for [M +3H]^3+ and higher charge state were considered. […]
# As a negative control untreated cells were used. […] The MS-MS data were analyzed by SEQUEST.
# [2] = test system: HIV-1 LTR-Lac Z reporter in 293T cells; assay: HIV-1 LTR-directed transcription in 293T cells transfected with Tat vector and HIV-1 LTR-LacZ reporter; format: cell-based; conditions: Human immunodeficiency virus 1, HEK-293T, read-out: IC50 for inhibition of HIV-1 LTR-directed transcription in 293T cells
# [3] = Trypan blue exclusion viability assay in CEM cells; format: cell-based; conditions: human, read-out: Cytotoxicity IC50 in CEM cells by trypan blue exclusion
# [4] = test system: HIV-1 transcription in CEM-GFP cells; assay: cells; format: cell-based
# PP1α = PP1α (Homo sapiens, UniProt P62136); assay: Nuclear and cytoplasmic distribution of PP1α-EGFP in HeLa and 293T cells; format: cell-based; design: expressed in transfected cells; host or cells: HeLa; 293T
# From the text: In live cells, PP1α is dynamically distributed between the cytoplasm and the nucleus, and its shuttling into the nucleus is thought to be regulated by its interaction with sds22 and inhibitor-3 regulatory subunits. […] We analyzed the effect of 1H4 on nuclear localization of PP1α in HeLa cells that were transfected with Flag-Tat and PP1α-EGFP expression vectors and treated with 1H4 or a control compound for 18hrs. In untreated cells, PP1α was localized in the perinuclear area and cytoplasm (Fig. 8A). Co-expression of Tat increased nuclear and perinuclear localization of PP1α (Fig. 8B). Co-expression of mutant Tat ^35QACA^38 in contrast led to a more homogeneous distribution of PP1α (Fig. 8C). […] To achieve quantifiable results, we measured fluorescence of PP1α-EGFP in nuclear and cytoplasmic fractions of 293T cells that were transfected with PP1α-EGFP or PP1α-EGFP and Tat expression vectors and treated with 1H4. […]
# Figure 8 1H4 compound disrupts the Tat-mediated translocation of PP1 into the nucleus. […] Fluorescence was measured in the nuclear and cytoplasmic fractions using Perkin-Elmer Luminoscan. […]
# Nuclear and cytoplasmic extracts were prepared using a modification of previously described method. […] Fluorescence was measured in cytoplasmic and nuclear lysates at 480 nm excitation and 510 nm emission on Luminescence Spectrometer LS50B (Perkin-Elmer).
# Chain of PP1α (P62136 whole entry): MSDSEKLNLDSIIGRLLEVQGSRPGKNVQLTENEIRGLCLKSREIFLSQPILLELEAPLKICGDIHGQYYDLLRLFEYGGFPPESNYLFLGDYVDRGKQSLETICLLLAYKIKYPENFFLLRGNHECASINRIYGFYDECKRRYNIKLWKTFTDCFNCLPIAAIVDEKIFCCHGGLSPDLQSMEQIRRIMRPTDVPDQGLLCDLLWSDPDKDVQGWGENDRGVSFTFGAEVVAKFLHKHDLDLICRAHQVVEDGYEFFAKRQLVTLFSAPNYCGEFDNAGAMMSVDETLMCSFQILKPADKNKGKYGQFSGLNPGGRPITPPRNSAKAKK
compound,measurement,setting,value
COCCNC(=O)COC(=O)c1c2c(nc3ccccc13)/C(=C/c1ccc(O)cc1)CCC2 [1H4],Association of Tat with CDK9/cyclin T1,[1],no effect on the association of Tat with CDK9/cyclin T1
same,PP1α co-precipitation with Flag-Tat,[1],reduced the amount of PP1α-EGFP that co-precipitated with Tat
same,Effect on cellular proteome,293T cells,did not significantly change the cellular proteome
same,IC50,[2],5 µM
same,IC50 at 24 h,[3],> 100 µM
same,Percent of inhibition of HIV-1 transcription in CEM GFP cells infected with Ad-Tat,"[4]; 25 µM of each compound, 48 hours",96%
same,IC50,"[4]; Human immunodeficiency virus 1, CEM-GFP, 24 h, read-out: Inhibition of HIV-1 Transcription in CEM-GFP cells (IC50, μM)",10 µM
same,Nuclear PP1α-EGFP fluorescence in fractionated cells,"PP1α; 293T cells, absence and presence of Tat, versus untreated or 1G3",significant decrease of nuclear PP1α-EGFP
same,Nuclear localization of PP1α in presence of Tat (fluorescence microscopy),"PP1α; HeLa cells, Flag-Tat and PP1α-EGFP, 10 µM, 18 hours",diminished nuclear localization of PP1α
